We go through two compounds from ChEMBL document CHEMBL1145487, “Evidence and possible consequences of the phosphorylation of nucleoside reverse transcriptase inhibitors in human red blood cells” (Antimicrob Agents Chemother, 2007).

The structures appear in SMILES notation.

Data set [1] is described as follows: Drug level in human RBC assessed as concentration of Lamivudine triphosphate per 10^6 cells. The format is ADME, cell-based. The note with it: erythrocyte.
Data set [2] in a line: Drug level in human RBC assessed as concentration of Lamivudine triphosphate per 10^6 cells after 0.3 hrs. In kind it is ADME, cell-based. The note with it: erythrocyte.
Data set [3] relates to PBMC. Put plainly: Drug level in human PBMC assessed as concentration of Lamivudine triphosphate per 10^6 cells. The format is ADME, cell-based.
For data set [4], the system named is PBMC. Description: Drug level in human PBMC assessed as concentration of Lamivudine triphosphate per 10^6 cells after 0.3 hrs. The format is ADME, cell-based.
The nature of data set [5]: Ratio of drug level in human RBC to human PBMC assessed as concentration of Lamivudine triphosphate. To be noted: erythrocytes. In kind it is ADME.
A short description of data set [6]: Ratio of drug level in human RBC to human PBMC assessed as concentration of Lamivudine triphosphate after 0.3 hrs. To be noted: erythrocytes. In kind it is ADME.
Data set [7] in a line: Drug level in human RBC assessed as concentration of tenofovir diphosphate per 10^6 cells after 11.9 hrs. To be noted: erythrocyte. In kind it is ADME, cell-based.
A short description of data set [8]: Drug level in human RBC assessed as concentration of tenofovir diphosphate per 10^6 cells after 13.3 hrs. In kind it is ADME, cell-based. The note with it: erythrocyte.
Data set [9] in a line: Drug level in human RBC assessed as concentration of tenofovir diphosphate per 10^6 cells after 0.8 hrs. The format is ADME, cell-based. To be noted: erythrocyte.
The nature of data set [10]: Drug level in human RBC assessed as concentration of tenofovir diphosphate per 10^6 cells after 14.3 hrs. The note with it: erythrocyte. In kind it is ADME, cell-based.
The nature of data set [11]: Drug level in human RBC assessed as concentration of tenofovir diphosphate per 10^6 cells after 13.5 hrs. In kind it is ADME, cell-based. To be noted: erythrocyte.
Data set [12] concerns PBMC. Description: Drug level in human PBMC assessed as concentration of tenofovir diphosphate per 10^6 cells after 11.9 hrs. In kind it is ADME, cell-based.
In data set [13] the test system is PBMC. Put plainly: Drug level in human PBMC assessed as concentration of tenofovir diphosphate per 10^6 cells after 13.9 hrs. The format is ADME, cell-based.
Data set [14] deals with PBMC. Put plainly: Drug level in human PBMC assessed as concentration of tenofovir diphosphate per 10^6 cells after 0.8 hrs. In kind it is ADME, cell-based.
Data set [15] has as its system PBMC. Description: Drug level in human PBMC assessed as concentration of tenofovir diphosphate per 10^6 cells after 14.3 hrs. In kind it is ADME, cell-based.
The nature of data set [16]: Ratio of drug level in human RBC to human PBMC assessed as concentration of Lamivudine triphosphate after 0.8 hrs. To be noted: erythrocytes. The format is ADME.
Data set [17] can be described thus: Ratio of drug level in human RBC to human PBMC assessed as concentration of Lamivudine triphosphate after 14.3 hrs. The note with it: erythrocytes. In kind it is ADME.
Data set [18] is described as follows: Ratio of drug level in human RBC to human PBMC assessed as concentration of lamivudin triphosphate after 13.5 hrs. The note with it: erythrocytes. The format is ADME.
In data set [19] the test system is PBMC. Put plainly: Drug level in non-lysed human PBMC assessed as concentration of tenofovir diphosphate after 2 hrs. The format is ADME, cell-based.
In data set [20] the test system is PBMC. Description: Drug level in non-lysed human PBMC assessed as concentration of tenofovir diphosphate after 9.5 hrs. In kind it is ADME, cell-based.
For data set [21], the system named is PBMC. Description: Drug level in RBC lysed human PBMC assessed as concentration of tenofovir diphosphate after 2 hrs. In kind it is ADME, cell-based.
The subject of data set [22] is PBMC. Put plainly: Drug level in RBC lysed human PBMC assessed as concentration of tenofovir diphosphate after 9.5 hrs. In kind it is ADME, cell-based.
Data set [23] concerns PBMC. Put plainly: Ratio of drug level in non-lysed human PBMC to RBC lysed human PBMC assessed as concentration of tenofovir diphosphate after 2 hrs. The format is ADME, cell-based.
In data set [24] the test system is PBMC. Description: Ratio of drug level in non-lysed human PBMC to RBC lysed human PBMC assessed as concentration of tenofovir diphosphate after 9.5 hrs. The format is ADME, cell-based.
Data set [25] has as its system PBMC. Put plainly: Drug level in human PBMC assessed as concentration of tenofovir diphosphate per 10^6 cells after 13.5 hrs. The format is ADME, cell-based.
The nature of data set [26]: Ratio of drug level in human RBC to human PBMC assessed as concentration of Lamivudine triphosphate after 11.9 hrs. In kind it is ADME. The note with it: erythrocytes.
Data set [27] in a line: Ratio of drug level in human RBC to human PBMC assessed as concentration of Lamivudine triphosphate after 13.3 hrs. In kind it is ADME. To be noted: erythrocytes.

`Nc1ccn([C@@H]2CS[C@H](CO)O2)c(=O)n1` (single isomer, unassigned) [LAMIVUDINE]: the Drug uptake in data set [1] came to 0.04 pmol; in data set [2], 0.09 pmol; in data set [3], 11.1 pmol; in data set [4], 10.5 pmol. For the same compound, the Ratio came out at 0.004 in data set [5] and 0.009 in [6].
Take `CC(C)OC(=O)OCOP(=O)(CO[C@H](C)Cn1cnc2c(N)ncnc21)OCOC(=O)OC(C)C.O=C(O)/C=C/C(=O)O` [TENOFOVIR DISOPROXIL FUMARATE]: the Drug uptake in data set [7] is given as 143 fmol; in data set [8], 165 fmol; in data set [9], 443 fmol; in [10], 73.3 fmol; in [11], 245 fmol; in [12], 131 fmol. Besides, the Drug uptake is listed as 148 fmol in data set [13]; 226 fmol in data set [14]; 95.5 fmol in data set [15]; 302.6 fmol in data set [19]; 1287 fmol in [20]; 376.6 fmol in [21]. For the same compound, the figures for the Drug uptake in data set [22] and in data set [25] were 182.5 fmol and 202 fmol, respectively. Moreover, the Ratio amounted to 2 in data set [16]; 0.8 in data set [17]; 1.2 in data set [18]; 0.8 in [23]; 7.05 in data set [24]; 1.1 in [26]. Further, the Ratio in [27] is on record as 1.1.
